Data set [1] in a line: Inhibition of K+-stimulated H(+)/K(+) ATPase in porcine gastric mucosal microsomal fraction assessed as reduction in inorganic phosphate release incubated at 37 degC for 30 mins in presence of ATP by malachine green dye based colorimetry. It counts as microsomes, Sus scrofa, Gastric mucosa.
A short description of data set [2]: Lipophilicity, log D of the compound. The class given is physicochemical. The note with it: octanol/water.
The species named for data set [3] is Sus scrofa. The data set can be described thus: Inhibition of K+-stimulated H(+)/K(+) ATPase in porcine gastric mucosal microsomal fraction assessed as reduction in inorganic phosphate release at 10 uM incubated at 37 degC for 30 mins in presence of ATP by malachine green dye based colorimetry. The class given is microsomes. To be noted: Gastric mucosa.

Each structure is given as a SMILES string.

In the case of `CNCc1cc(S(=O)(=O)c2ccccc2)n(-c2ccccc2)c1`, the IC50 in data set [1] came to 130 nM. This compound displayed a logD in data set [2] of 0.4.

Turning to `CCNc1nc(-c2ccccc2)c(S(=O)(=O)c2ccccc2)s1`, in data set [3], the inhibition worked out at 6.9%. As to `CNCc1nc(-c2ccccc2)c(S(=O)(=O)c2ccccc2)s1`, the IC50 in data set [1] was found to be 170 nM. In data set [2], this compound returned a logD of 2.1.

For the compound `CNCc1cc(-c2ccccc2)c(S(=O)(=O)c2ccc(C)cc2)o1`, the inhibition in data set [3] worked out at 33.2%.

For `CNCc1cc(S(=O)(=O)c2ccccc2)c(-c2ccccc2)[nH]1`, the inhibition in data set [3] was 19.8%.

Regarding `CNc1nc(-c2ccccc2)c(S(=O)(=O)c2ccccc2)s1`, the inhibition in data set [3] came to 3.6%. For `CNCc1cc(S(=O)(=O)c2ccccc2)c(-c2ccccc2)o1`, the IC50 in data set [1] was determined as 1000 nM. Besides, in data set [2], the logD was determined as 1.8.

In the case of `CNCc1cc(-c2ccccc2)c(S(=O)(=O)c2ccccc2)s1`, in data set [1], the IC50 came to 52 nM. Also, in data set [2], the logD turned out to be 2.1. With `CNCc1nc(S(=O)(=O)c2ccccc2)c(-c2ccccc2)s1`, in data set [3], the inhibition worked out at 2%.

With `CNCc1cc(S(=O)(=O)c2ccccc2)c(-c2ccccc2)s1`, the IC50 in data set [1] worked out at 150 nM. Moreover, the logD in data set [2] is 1.9.

On to `CNCc1cc(S(=O)(=O)c2ccccc2)n(-c2ccccc2)n1`, for which the IC50 in data set [1] turned out to be 68 nM. The compound also displayed a pH-dependent lipophilicity (logD) in data set [2] of 1.1. For `CNCc1cn(S(=O)(=O)c2ccc(C)cc2)c(-c2ccccc2)n1` the same measures were 99 nM and 0.

Source of the values: ChEMBL document CHEMBL3399939, “Synthetic studies of five-membered heteroaromatic derivatives as potassium-competitive acid blockers (P-CABs)” (Bioorg Med Chem Lett, 2015).
